Source: ChEMBL document CHEMBL1152560, “Substituted 2-arylbenzothiazoles as kinase inhibitors: hit-to-lead optimization” (Bioorg Med Chem, 2009)

What was measured:
[1] = molecular target: T1, Tyrosine-protein kinase ITK/TSK (Homo sapiens) (UniProt Q08881); test: Residual activity of ITK at 1 uM by microplate scintillation counting
T1 sequence (whole entry): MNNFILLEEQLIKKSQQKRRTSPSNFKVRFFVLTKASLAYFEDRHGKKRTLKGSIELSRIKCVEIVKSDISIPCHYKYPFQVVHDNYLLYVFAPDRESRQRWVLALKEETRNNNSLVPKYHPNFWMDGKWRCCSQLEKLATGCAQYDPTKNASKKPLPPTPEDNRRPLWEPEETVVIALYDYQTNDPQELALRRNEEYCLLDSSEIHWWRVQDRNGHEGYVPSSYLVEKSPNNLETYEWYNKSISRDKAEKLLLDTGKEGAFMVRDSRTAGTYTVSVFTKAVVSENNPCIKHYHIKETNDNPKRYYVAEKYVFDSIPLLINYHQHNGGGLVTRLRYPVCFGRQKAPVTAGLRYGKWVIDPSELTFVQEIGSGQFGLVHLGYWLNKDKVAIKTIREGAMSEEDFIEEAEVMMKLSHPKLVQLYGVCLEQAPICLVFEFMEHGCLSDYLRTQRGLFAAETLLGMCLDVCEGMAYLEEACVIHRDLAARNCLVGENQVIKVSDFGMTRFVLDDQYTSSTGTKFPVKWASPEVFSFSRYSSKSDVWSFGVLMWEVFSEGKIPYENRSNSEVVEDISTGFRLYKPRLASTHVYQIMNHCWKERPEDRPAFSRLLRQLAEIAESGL

[2] = molecular target: T2, Serine/threonine-protein kinase Nek2 (Homo sapiens) (UniProt P51955); test: Residual activity of NEK2 at 1 uM by microplate scintillation counting
T2 sequence (whole entry): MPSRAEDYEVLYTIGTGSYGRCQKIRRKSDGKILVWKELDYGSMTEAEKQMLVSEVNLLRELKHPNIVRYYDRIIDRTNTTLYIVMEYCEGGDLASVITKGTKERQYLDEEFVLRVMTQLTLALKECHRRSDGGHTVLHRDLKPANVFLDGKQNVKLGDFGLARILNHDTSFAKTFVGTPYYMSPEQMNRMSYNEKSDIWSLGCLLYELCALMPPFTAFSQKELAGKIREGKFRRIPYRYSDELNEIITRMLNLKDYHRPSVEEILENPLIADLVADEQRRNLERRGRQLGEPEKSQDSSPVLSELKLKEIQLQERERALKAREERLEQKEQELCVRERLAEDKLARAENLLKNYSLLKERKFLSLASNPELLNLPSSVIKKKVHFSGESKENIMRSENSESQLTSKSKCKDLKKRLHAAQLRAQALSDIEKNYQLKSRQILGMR

[3] = molecular target: Vascular endothelial growth factor receptor 2 (Homo sapiens, UniProt P35968); test: Residual activity of VEGFR2 at 1 uM by microplate scintillation counting
Chain of Vascular endothelial growth factor receptor 2 (P35968 whole entry): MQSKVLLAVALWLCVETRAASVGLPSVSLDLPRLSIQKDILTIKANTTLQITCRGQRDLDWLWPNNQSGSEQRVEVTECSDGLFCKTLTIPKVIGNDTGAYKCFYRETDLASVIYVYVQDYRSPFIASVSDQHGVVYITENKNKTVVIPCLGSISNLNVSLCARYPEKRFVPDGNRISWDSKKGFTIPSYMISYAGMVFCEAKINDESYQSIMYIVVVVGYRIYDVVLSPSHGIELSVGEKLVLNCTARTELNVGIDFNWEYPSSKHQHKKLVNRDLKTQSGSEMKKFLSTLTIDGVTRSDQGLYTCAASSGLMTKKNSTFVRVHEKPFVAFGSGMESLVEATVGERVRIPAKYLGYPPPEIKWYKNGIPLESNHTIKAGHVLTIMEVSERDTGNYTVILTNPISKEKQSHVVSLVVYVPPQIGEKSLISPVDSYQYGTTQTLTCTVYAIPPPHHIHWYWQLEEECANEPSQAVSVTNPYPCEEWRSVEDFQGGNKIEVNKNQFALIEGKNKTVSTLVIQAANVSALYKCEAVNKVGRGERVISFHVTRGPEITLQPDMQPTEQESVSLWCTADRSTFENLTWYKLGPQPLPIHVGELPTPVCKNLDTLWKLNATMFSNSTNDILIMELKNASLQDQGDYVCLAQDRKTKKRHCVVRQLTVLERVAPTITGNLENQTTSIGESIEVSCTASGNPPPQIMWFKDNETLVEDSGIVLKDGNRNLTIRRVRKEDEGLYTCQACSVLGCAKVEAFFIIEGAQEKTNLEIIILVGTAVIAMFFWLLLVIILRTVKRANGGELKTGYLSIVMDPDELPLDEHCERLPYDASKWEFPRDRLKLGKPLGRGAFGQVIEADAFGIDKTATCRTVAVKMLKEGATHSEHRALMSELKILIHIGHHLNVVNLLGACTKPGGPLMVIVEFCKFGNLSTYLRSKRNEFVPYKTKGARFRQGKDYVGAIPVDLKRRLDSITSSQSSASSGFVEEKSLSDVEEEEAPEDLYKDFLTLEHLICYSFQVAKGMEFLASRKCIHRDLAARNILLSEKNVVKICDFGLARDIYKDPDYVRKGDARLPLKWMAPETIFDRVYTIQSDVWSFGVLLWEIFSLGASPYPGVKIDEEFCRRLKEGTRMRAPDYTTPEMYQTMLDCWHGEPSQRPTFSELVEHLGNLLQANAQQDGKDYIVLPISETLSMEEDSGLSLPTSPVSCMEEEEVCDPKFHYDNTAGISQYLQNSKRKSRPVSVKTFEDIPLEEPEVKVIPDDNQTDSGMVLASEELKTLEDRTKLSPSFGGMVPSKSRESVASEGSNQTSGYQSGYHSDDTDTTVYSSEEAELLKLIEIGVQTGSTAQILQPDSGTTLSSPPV

[4] = molecular target: T3, Ephrin type-B receptor 3 (Homo sapiens) (UniProt P54753); test: Residual activity of EPHB3 at 10 uM by microplate scintillation counting
T3 sequence (whole entry): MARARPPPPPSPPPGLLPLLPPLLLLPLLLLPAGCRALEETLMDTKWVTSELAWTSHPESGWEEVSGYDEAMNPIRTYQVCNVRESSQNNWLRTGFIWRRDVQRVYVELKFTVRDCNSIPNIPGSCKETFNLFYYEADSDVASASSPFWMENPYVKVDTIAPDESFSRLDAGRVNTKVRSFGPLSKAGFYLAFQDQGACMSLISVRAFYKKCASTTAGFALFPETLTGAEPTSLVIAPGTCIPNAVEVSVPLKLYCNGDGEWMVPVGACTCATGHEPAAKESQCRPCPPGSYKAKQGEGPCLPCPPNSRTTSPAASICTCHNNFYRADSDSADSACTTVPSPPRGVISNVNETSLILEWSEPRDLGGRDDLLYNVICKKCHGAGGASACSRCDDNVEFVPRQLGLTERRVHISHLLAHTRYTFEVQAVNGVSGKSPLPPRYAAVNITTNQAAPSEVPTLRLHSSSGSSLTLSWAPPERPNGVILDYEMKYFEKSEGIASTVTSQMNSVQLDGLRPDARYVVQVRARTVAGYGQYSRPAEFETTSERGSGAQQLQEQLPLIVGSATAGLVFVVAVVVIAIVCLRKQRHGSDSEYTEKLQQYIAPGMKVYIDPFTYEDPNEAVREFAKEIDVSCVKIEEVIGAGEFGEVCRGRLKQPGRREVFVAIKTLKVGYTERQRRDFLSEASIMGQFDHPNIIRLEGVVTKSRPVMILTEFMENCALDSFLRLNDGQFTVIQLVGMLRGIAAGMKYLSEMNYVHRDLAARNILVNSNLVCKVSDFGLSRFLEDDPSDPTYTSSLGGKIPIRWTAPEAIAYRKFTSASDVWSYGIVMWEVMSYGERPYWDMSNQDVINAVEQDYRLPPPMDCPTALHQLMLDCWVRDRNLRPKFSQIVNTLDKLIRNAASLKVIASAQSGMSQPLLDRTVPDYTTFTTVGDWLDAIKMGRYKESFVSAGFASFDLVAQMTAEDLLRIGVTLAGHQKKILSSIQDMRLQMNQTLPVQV

[5] = molecular target: T4, Serine/threonine-protein kinase NLK (Homo sapiens) (UniProt Q9UBE8); test: Residual activity of NLK at 10 uM by microplate scintillation counting
T4 sequence (whole entry): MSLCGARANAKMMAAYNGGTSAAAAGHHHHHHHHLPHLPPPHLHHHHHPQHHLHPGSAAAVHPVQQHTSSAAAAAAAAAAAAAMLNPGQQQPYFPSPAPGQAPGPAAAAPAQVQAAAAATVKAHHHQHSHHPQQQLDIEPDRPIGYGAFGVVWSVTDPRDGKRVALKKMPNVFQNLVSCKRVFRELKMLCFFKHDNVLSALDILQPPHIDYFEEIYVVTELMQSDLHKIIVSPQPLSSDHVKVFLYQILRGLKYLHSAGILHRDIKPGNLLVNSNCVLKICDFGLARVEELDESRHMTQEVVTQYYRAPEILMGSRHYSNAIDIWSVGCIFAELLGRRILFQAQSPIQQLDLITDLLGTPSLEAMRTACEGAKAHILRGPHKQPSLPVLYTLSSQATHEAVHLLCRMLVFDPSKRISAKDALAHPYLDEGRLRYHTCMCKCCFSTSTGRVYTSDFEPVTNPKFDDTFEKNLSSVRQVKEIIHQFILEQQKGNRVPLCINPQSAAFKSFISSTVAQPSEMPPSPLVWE

Row | residual activity [1] [%] | residual activity [2] [%] | residual activity [3] [%] | residual activity [4] [%] | residual activity [5] [%] | Compound
1 | 95 | 89 | 49 | 227 | 90 | COc1cc2c(Oc3ccc(-c4nc5ccccc5s4)cc3)ncnc2cc1OCCCN1CCCC1
2 | 91 | 81 | 40 | 372 | 113 | COc1cc2c(Oc3ccc(-c4nc5ccccc5s4)cc3)ncnc2cc1OCCCN1CCN(C)CC1
3 | 97 | 89 | 53 | 105 | 114 | COc1cc2c(Oc3ccc(-c4nc5ccccc5s4)cc3F)ncnc2cc1OCCCN1CCN(C)CC1
